# Reference: US20220146526A1, “METHOD FOR EVALUATING SAMPLE, ANALYSIS METHOD, METHOD FOR DETECTING DEGRADED SAMPLE, MARKER FOR DETECTING DEGRADED BLOOD PLASMA SAMPLE, AND MARKER FOR DETECTING DEGRADED SERUM SAMPLE” (SHIMADZU CORPORATION, priority 2019, published 2022)
# Assays:
# Assay type in all cases: physicochemical, human
# [1] = GC/MS of blood plasma sample: number of times of freezing and thawing (Table C); settings: for Rate of increase or decrease: detection intensity relative to 1 at 2 times; for Increase or decrease: detection intensity
# Method in brief: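 Values express detection intensity as a ratio to the 2-cycle freeze-thaw sample (=1), compared with 4, 6 and 10 cycles. Healthy-donor EDTA plasma, cooled at ≤1 min or ≥5 min, spun at 4 °C, 3000 rpm, 15 min. Derivatised by methoxymation/trimethylsilylation; GC-MS/MS in MRM mode with electron ionization.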
# [2] = LC/MS of serum sample: time from centrifugation to isolation (Table K); design: key to Rate of increase or decrease: detection intensity relative to the 30-minute value set as 1; settings: for Rate of increase or decrease: after 6 hours from centrifugation to isolation, detection intensity relative to 1 at 30 minutes; for Increase or decrease / Time when compound is affected: serum sample, LC/MS; for Increase or decrease: detection intensity vs 30 minutes from centrifugation to isolation; for Time when compound is affected: time from centrifugation to isolation, detection intensity changed by 30% or more vs 30 minutes
# Method in brief: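 Serum left at room temperature 30 min, 1 h or 6 h between centrifugation (3500 rpm, 5 min, room temperature) and isolation, then frozen and analysed by LC/MS (Discovery HS F5-3 column, 40° C., 0.1% formic acid water/acetonitrile, electrospray, MRM). Values are detection intensity relative to the 30-min condition set to 1.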
# [3] = GC/MS of serum sample: time from blood collection to centrifugation (Table G); settings: for Rate of increase or decrease: detection intensity relative to 1 at 15 minutes; for Rate of increase or decrease / Increase or decrease: blood collection to centrifugation; for Increase or decrease: detection intensity, after 4 hours vs 15 minutes
# Method in brief: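 Values express detection intensity as a ratio to the sample centrifuged 15 minutes after blood collection (taken as 1). Serum was derivatized by methoxymation and trimethylsilylation, then analysed by electron-ionization GC/MS using multiple reaction monitoring on a BPX5 column ramped from 60 to 330° C.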
# [4] = GC/MS of blood plasma sample: time from blood collection to centrifugation (Table A); settings: for Rate of increase or decrease: detection intensity relative to 1 at 15 minutes; for Rate of increase or decrease / Increase or decrease: blood collection to centrifugation; for Increase or decrease: detection intensity, after 4 hours vs 15 minutes
# Method in brief: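 Read-out is MRM detection intensity by electron-ionization GC/MS on a BPX5 column after methoxymation and trimethylsilylation, expressed relative to a 15-minute collection-to-centrifugation interval. Plasma was prepared from EDTA blood held at 4° C and spun at 4° C, 3000 rpm for 15 minutes, then frozen.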
# [5] = LC/MS of serum sample: number of times of freezing and thawing (Table M); design: key to Rate of increase or decrease: detection intensity relative to 1 at 2 freeze-thaw cycles; settings: for Number of times when compound is affected / Increase or decrease: serum sample, LC/MS; for Number of times when compound is affected: detection intensity changed by 30% or more vs 2 times of freezing and thawing; for Increase or decrease: detection intensity vs 2 times of freezing and thawing
# Method in brief: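 Values are detection intensities relative to serum thawed twice, versus 4, 6 or 10 freeze-thaw cycles. Serum came from blood spun at room temperature, 3500 rpm for 5 minutes. Analysis: electrospray LC/MS in MRM mode, Discovery HS F5-3 column, 40° C, 0.1% formic acid in water and acetonitrile.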
# [6] = GC/MS of blood plasma sample: time from blood collection to cooling of blood (Table B); design: key to Rate of increase or decrease / Rate of increase or decrease (first value, increase): detection intensity relative to 1 at cooling time ≤1 min; settings: for Increase or decrease: detection intensity, blood collection to cooling 5 minutes or more vs 1 minute or less; for Rate of increase or decrease: detection intensity relative to 1 at 1 minute or less, blood collection to cooling 5 minutes
# Method in brief: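 Blood drawn at room temperature into EDTA tubes, mixed, then cooled at 4° C. within 1 minute or less versus 5 minutes or more before centrifugation (4° C., 3000 rpm, 15 minutes). Plasma was frozen, methoxymated and trimethylsilylated, and analysed by EI GC/MS in MRM mode. Values are detection intensity relative to the ≤1 minute condition.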
# [7] = LC/MS of blood plasma sample: time from blood collection to cooling of blood (Table E); design: key to Rate of increase or decrease / Rate of increase or decrease (first value, increase): detection intensity relative to ≤1 min to cooling = 1; settings: for Increase or decrease: detection intensity, blood collection to cooling 5 minutes or more vs 1 minute or less; for Rate of increase or decrease: detection intensity relative to 1 at 1 minute or less, blood collection to cooling 5 minutes
# [8] = different from individual to individual, individuals with decrease, relative to 1 at 1 minute or less, collection to cooling 5 minutes
# [9] = different from individual to individual, individuals with increase, relative to 1 at 1 minute or less, collection to cooling 5 minutes
# [10] = 4 times of freezing and thawing, relative to 1 at 2 times, different from individual to individual, first value (increase)
# [11] = 4 times of freezing and thawing, relative to 1 at 2 times, different from individual to individual, second value (decrease)
# [12] = different from individual to individual, individuals with decrease, relative to 1 at 15 minutes, collection to centrifugation, after 4 hours
# [13] = different from individual to individual, individuals with increase, relative to 1 at 15 minutes, collection to centrifugation, after 4 hours
Rate of increase or decrease [2],Increase or decrease [2],Time when compound is affected [2],Rate of increase or decrease ([3]; after 4 hours),Increase or decrease [3],Rate of increase or decrease ([4]; after 4 hours),Increase or decrease [4],Number of times when compound is affected [5] [times],Increase or decrease [5],Increase or decrease [6],Increase or decrease [7],"Rate of increase or decrease [5, 10]","Rate of increase or decrease [5, 11]",Rate of increase or decrease [7],Rate of increase or decrease [6],Compound,also measured
10.46,Increase,After 6 hours,1.67,Increase,0.18,Decrease,4,Increase,Different from individual,Different from individual,–,–,–,–,NC(=O)NC1NC(=O)NC1=O (stereo not shown) [Allantoin],"Rate of increase or decrease ([1]; freezing and thawing 10 times): 1.42; Increase or decrease ([1]; freezing and thawing 10 times vs 2 times): Increase; Rate of increase or decrease ([5]; 4 times of freezing and thawing, detection intensity relative to 1 at 2 times): 3.27; Rate of increase or decrease (second value, decrease) [6, 8]: 0.57; Rate of increase or decrease (first value, increase) [6, 9]: 1.30; Rate of increase or decrease (second value, decrease) [7, 8]: 0.40; Rate of increase or decrease (first value, increase) [7, 9]: 1.57"
2.78,Increase,After 6 hours,2.11,Increase,–,–,4,Different from individual,–,Increase,1.35,0.61,7.92,–,O=c1[nH]cnc2nc[nH]c12 [Hypoxanthine],–
–,–,–,–,Different from individual,3.15,Increase,10,Decrease,Increase,–,–,–,–,3.56,CC(C)(CO)[C@@H](O)C(=O)NCCC(=O)O [Pantothenic acid],"Rate of increase or decrease ([1]; freezing and thawing 4 times): 3.07; Increase or decrease ([1]; freezing and thawing 4 times vs 2 times): Increase; Rate of increase or decrease (second value, decrease) [3, 12]: 0.51; Rate of increase or decrease (first value, increase) [3, 13]: 1.78; Rate of increase or decrease ([5]; 10 times of freezing and thawing, detection intensity relative to 1 at 2 times): 0.55"
2.50,Increase,After 6 hours,–,–,–,Different from individual,4,Different from individual,Decrease,Increase,1.37,0.70,1.47,0.45,O=c1[nH]c(=O)c2[nH]cnc2[nH]1 [Xanthine],"Increase or decrease ([1]; freezing and thawing 6 times vs 2 times): Different from individual; Rate of increase or decrease (second value, decrease) ([1]; different from individual to individual, individuals with decrease, relative to 1 at 2 times, freezing and thawing 6 times): 0.51; Rate of increase or decrease (first value, increase) ([1]; different from individual to individual, individuals with increase, relative to 1 at 2 times, freezing and thawing 6 times): 2.21; Rate of increase or decrease (second value, decrease) [4, 12]: 0.49; Rate of increase or decrease (first value, increase) [4, 13]: 1.83"
